{
  "source": "BindingDB's records for patent US20240252496",
  "about": "(The Children’s Medical Center, 2024)",
  "test_in_all_cases": "Conditioned place preference (CPP) assay",
  "key": {"Histone deacetylase 2": {"molecular_target": "Histone deacetylase 2 (Homo sapiens, UniProt Q92769)", "sequence (Q92769 whole entry)": "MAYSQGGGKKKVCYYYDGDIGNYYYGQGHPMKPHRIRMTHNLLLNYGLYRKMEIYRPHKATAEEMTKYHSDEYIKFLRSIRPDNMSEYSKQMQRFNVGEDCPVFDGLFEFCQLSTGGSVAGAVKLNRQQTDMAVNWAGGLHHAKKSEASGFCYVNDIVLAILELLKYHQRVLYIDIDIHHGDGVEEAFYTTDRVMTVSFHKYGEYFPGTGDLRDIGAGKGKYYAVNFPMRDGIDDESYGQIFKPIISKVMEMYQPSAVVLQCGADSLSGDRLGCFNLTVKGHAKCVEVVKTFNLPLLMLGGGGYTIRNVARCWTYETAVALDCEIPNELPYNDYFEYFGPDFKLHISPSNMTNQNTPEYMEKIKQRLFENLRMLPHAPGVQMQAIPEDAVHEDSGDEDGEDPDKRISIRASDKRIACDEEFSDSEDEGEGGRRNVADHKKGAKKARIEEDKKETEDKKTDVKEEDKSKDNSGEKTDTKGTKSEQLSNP"}, "Histone deacetylase 1": {"molecular_target": "Histone deacetylase 1 (Homo sapiens, UniProt Q13547)", "sequence (Q13547 whole entry)": "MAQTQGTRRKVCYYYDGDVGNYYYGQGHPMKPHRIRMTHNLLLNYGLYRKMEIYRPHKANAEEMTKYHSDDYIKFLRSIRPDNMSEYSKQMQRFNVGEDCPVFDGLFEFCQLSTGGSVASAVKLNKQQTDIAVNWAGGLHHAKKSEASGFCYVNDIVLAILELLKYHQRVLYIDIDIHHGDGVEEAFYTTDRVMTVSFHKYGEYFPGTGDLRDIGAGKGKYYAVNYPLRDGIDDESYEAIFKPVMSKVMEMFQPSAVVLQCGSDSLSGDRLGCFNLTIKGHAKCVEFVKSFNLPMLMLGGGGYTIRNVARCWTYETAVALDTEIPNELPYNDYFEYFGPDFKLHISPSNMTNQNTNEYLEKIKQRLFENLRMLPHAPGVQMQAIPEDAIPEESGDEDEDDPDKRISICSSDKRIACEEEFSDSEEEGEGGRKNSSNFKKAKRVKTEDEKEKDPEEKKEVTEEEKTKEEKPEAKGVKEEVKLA"}, "Histone deacetylase 3": {"molecular_target": "Histone deacetylase 3 (Homo sapiens, UniProt O15379)", "sequence (O15379 whole entry)": "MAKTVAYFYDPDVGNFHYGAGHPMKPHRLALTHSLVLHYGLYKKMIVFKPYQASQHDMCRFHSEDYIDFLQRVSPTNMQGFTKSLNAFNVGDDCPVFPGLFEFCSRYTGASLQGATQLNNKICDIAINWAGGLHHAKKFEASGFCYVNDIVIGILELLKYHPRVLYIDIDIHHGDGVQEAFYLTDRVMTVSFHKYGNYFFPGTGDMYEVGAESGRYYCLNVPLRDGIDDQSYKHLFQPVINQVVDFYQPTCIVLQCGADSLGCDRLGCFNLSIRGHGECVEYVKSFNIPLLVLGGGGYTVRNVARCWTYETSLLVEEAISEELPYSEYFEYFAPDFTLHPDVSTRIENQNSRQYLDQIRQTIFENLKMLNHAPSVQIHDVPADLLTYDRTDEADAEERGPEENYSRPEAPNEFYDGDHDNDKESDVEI"}},
  "data": [
    {"smiles": "COC(c1ccc(F)cc1)(c1ccc(F)cc1)c1ccc(C(=O)NCCCCCCC(=O)NO)cc1", "note": "[US20240252496, Example ACY-257]", "values": [
      {"measurement": "IC50", "setting": "Histone deacetylase 2", "result": 530, "unit": "nM"},
      {"measurement": "IC50", "setting": "Histone deacetylase 1", "result": 268, "unit": "nM"},
      {"measurement": "IC50", "setting": "Histone deacetylase 3", "result": 850, "unit": "nM"}
    ]}
  ]
}
